One data set deals with PC 12 cell line. The experiment in a line: Cytotoxicity assay (CCK-8) on PC 12. Type of data set: cell-based, rat. The following applies: 20 μM. Here is the method:
RAW264.7 cells were cultured in 96-well plates at a density of 3 × 10^4 cells/mL in Dulbecco’s modified Eagle’s medium (DMEM, Gibco, Baltimore, MD, USA) with 10% fetal calf serum (Gibco, Baltimore, MD, USA), 100 U/mL penicillin, and 100 μg/mL streptomycin. Plates were incubated in an atmosphere containing 5% CO2 at […]. PC 12 cells were cultured in 96-well plates at a density of 8000 cells/mL in Dulbecco’s modified Eagle’s medium (DMEM, Gibco, Baltimore, MD, USA) with 10% fetal calf serum (Gibco, Baltimore, MD, USA), 100 U/mL penicillin, and 100 μg/mL streptomycin. Plates were incubated in an atmosphere containing 5% CO2 at 37 °C. Cells were treated with different concentrations of test compounds for 48 h. Then, 10 μL CCK-8 solution were added to all the wells. After 4 h incubation, the absorbance at 450 nm of each well was measured in a multiscan photometer.

Data set [1] has as its system LPS-stimulated RAW264.7 cell lines. The experiment in a line: LPS-induced NO production (Griess) in RAW264.7. Type of data set: cell-based, murine. The following applies: for The production of NO: LPS-stimulated RAW264.7, LPS group 49.86 ± 0.62, control 1.20 ± 0.38. The gist of the method:
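RAW 264.7 murine macrophages were seeded at 1 × 10^4 cells/well in 96-well plates and cultured overnight at 37 °C with 5% CO2, with dexamethasone as positive control. After 24 h, nitrite in 50 μL of supernatant was quantified by sequential 5-min room-temperature incubations with 50 μL Griess reagent A and then reagent B, reading absorbance at 540 nm.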
A general note: Griess reagent forms a coloured azo dye with nitrite.

Data set [2] relates to H2O2-stimulated PC 12 cell lines. The experiment in a line: Protection against H2O2-induced oxidative damage (CCK-8). It counts as cell-based, rat. Particulars: H2O2-induced oxidative damage, PC 12, H2O2 group 49.69 ± 1.37, control 100; for Cell viability: in % (unit assumed). The essentials:
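Rat PC 12 cells were plated in 96-well plates at 8000 cells/well and left to grow overnight. After a further 24 h incubation under the same conditions, each well received 10 μL CCK-8 solution. Following 2 h of incubation, absorbance at 450 nm was read on a microplate reader to measure cell viability.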

For the next data set, the system named is PC 12 cell lines. The experiment in a line: Radiation protection in vitro (CCK-8). It counts as cell-based, rat. The following applies: for viability at 5 µM / viability at 10 µM / viability at 20 µM: Rattus norvegicus, radiation 8.0 Gy, PC 12, radiation group 50.22 ± 1.08; for viability at 5 µM: PC-12, Dose 5 μM; for viability at 10 µM: PC-12, Dose 10 μM; for viability at 20 µM: PC-12, Dose 20 μM. Here is the method:
The rat adrenal pheochromocytoma cells (PC 12) were used for in vitro studies. A Cell Counting Kit-8 (CCK-8, Applygen Technologies Co., Ltd., Beijing, China) assay was used to determine cell viability. […] Cells were irradiated with dose of 8.0 Gy at a dose rate of 0.8 Gy/min. Then, 10 μL CCK-8 solution was added to all the wells. After 4 h incubation, the absorbance at 450 nm of each well was measured in a multiscan photometer.

A short description of data set [3]: Aqueous solubility determination by UV spectrophotometer. Type of data set: physicochemical. The following applies: water, thermodynamic from solid, saturated solution concentration. Here is the method: A UV spectrophotometer was used to test the aqueous solubility of target compounds. Each compound to be tested was prepared into solutions with concentrations of 0.2 M, 0.1 M, 0.05 M, 0.025 M, 0.0125 M, 0.00625 M, and 0.003125 M. The optical density (OD) values of the prepared solutions were measured using an ultraviolet spectrophotometer, and concentration–OD-value standard curves were drawn for each compound to be tested. The saturated solutions of the target compounds were diluted by 5000 times and detected using an ultraviolet spectrophotometer to measure the OD values, respectively. The measured OD values were substituted into the corresponding concentration-OD value standard curve to calculate the diluted concentrations, which were multiplied by 5000 to obtain the saturated solution concentrations of the target compounds.

The conditions of data set [4]: cited from earlier work.

Converted amounts (≈) assume the structure as drawn.

Take `COc1cc(/C=C/C(=O)CC(=O)/C=C/c2ccc(OC)c(OC)c2OC)cc(CN(C)C)c1O` [Compound 6a]: the “effect on PC 12 cell proliferation” value in the data set on PC 12 cell line is recorded as “significant promoting effect”. Moreover, the “inhibitory activity against NO production compared with curcumin” value in data set [1] (10 μM) is recorded as “better inhibitory activity”. Moreover, the results for the “The production of NO” value in data set [1] (Dose 5 μM), in data set [1] (Dose 10 μM) and in data set [1] (Dose 15 μM) were 27.02 ± 2.91, 14.29 ± 1.71 and 5.23 ± 0.72, respectively. For the same compound, the Cell viability in data set [2] (Dose 5 μM) worked out at 60.05 ± 5.39; in data set [2] (Dose 10 μM), 76.41 ± 2.29; in data set [2] (Dose 20 μM) it was 100.96 ± 1.07. Also, the “radiation protection capability compared with curcumin” value in the data set with PC 12 cell lines (10 μM, irradiated PC 12) is listed as “better radiation protection capability”. In the data set on PC 12 cell lines (10 μM, versus radiation group), the radiation protection capacity entry was “a certain degree of radiation protection capacity”. For the same compound, the viability (commonly a per cent measure of how many cells are alive, often set against a control) at 5 µM in the data set with PC 12 cell lines came out at 65.6 ± 2.17%. The compound also had a viability at 10 µM with PC 12 cell lines of 71.7 ± 2.56%. In the data set on PC 12 cell lines, the viability at 20 µM is 84.9 ± 6.57%. In data set [3], the solubility – broadly, how much of the substance goes into solution per volume – stood at 112 mg/mL (≈ 239 mM).
Regarding `COc1cc(/C=C/C(=O)CC(=O)/C=C/c2ccc(O)c(OC)c2)ccc1O` [Curcumin, curcumin, reference compound], the results for the “The production of NO” value in data set [1] (Dose 5 μM), in data set [1] (Dose 10 μM) and in data set [1] (Dose 15 μM) were 37.00 ± 1.12, 21.55 ± 1.29 and 5.96 ± 0.03, respectively. The viability at 5 µM is 59.6 ± 2.21% in data set [2] (Rattus norvegicus, PC-12, Dose 5 μM) and 55.1 ± 1.37% with PC 12 cell lines. Moreover, the viability at 10 µM in data set [2] (Rattus norvegicus, PC-12, Dose 10 μM) turned out to be 71.8 ± 1.52%; with PC 12 cell lines it was 59.39 ± 0.57%. Further, the viability at 20 µM worked out at 86.4 ± 1.28% in data set [2] (Rattus norvegicus, PC-12, Dose 20 μM) and 75.47 ± 0.68% in the data set with PC 12 cell lines. Further, the aqueous solubility – broadly, the dissolved amount per volume that the medium holds – in data set [4] is given as less than 0.1 mg/mL.
